65 sequences from the OligoGym collection can be followed below.

Several values for one entry are separate records, joined by “and”; a condition that tells them apart may be missing. Identical values can stand only once. After the bases stand the sugars from the 5' end (letter, count) and the backbone: PS all phosphorothioate, else s phosphorothioate and o phosphodiester by linkage. Methylation of C is not given here. e = 2'-O-(2-methoxyethyl) (MOE); k = constrained ethyl (cEt); d = 2'-deoxy (DNA)

One series deals with IRF4. The following applies: ASO, MM.1R, 0.0625 µM.
On to GCAATCTTAACCTGGA (sugars k3 d10 k3, PS), for which the target mRNA inhibition was -3% and 3%.
On the same count and under the same terms, the result for GGAGATACTTGTACTG (sugars k3 d10 k3, PS) reads 2%.

The same series, now with this note: ASO, MM.1R, 0.074 µM.
Turning to GGAGATACTTGTACTG (sugars k3 d10 k3, PS), the target mRNA inhibition stood at 16%.

Still in this series, the particulars now being: ASO, MM.1R, 0.222 µM.
As for GGAGATACTTGTACTG (sugars k3 d10 k3, PS), the target mRNA inhibition stood at 25%.

The series is the same for the next values; noted with them: ASO, MM.1R, 0.25 µM.
Regarding GCAATCTTAACCTGGA (sugars k3 d10 k3, PS), the target mRNA inhibition was found to be 8%.
Still for that read-out and setting: with GGAGATACTTGTACTG (sugars k3 d10 k3, PS) the figure was 26%.

The same series, now with this note: ASO, MM.1R, 0.666 µM.
For GGAGATACTTGTACTG (sugars k3 d10 k3, PS), the target mRNA inhibition worked out at 48%.

Still in this series, the particulars now being: ASO, MM.1R, 1 µM.
Consider GCAATCTTAACCTGGA (sugars k3 d10 k3, PS), for which the target mRNA inhibition was 37% and 38%.
With CGTCGCAGGAGCGCGG (sugars k3 d10 k3, PS), the target mRNA inhibition worked out at 1%.
The same measure, in the same setting: the result for “AGTATGAGAAACGGCC (sugars k3 d9 k3 e1, PS)” reads 7%.
Consider “GGAAGTTTACACTGGA (sugars kkdddddddddkekek, PS)”, for which the target mRNA inhibition was 47%.
On the same count and under the same terms, with “TCAGTTTGTGAAGCAT (sugars kkkddddddddkekek, PS)” the figure was 41%.
Same read-out and setting: with CCAACTTATAGCACTC (sugars k3 d10 k3, PS) the figure was 14%.
On the same count and under the same terms, the result for “TGTGATAGCTGAGCTG (sugars kdddddddddkekeke, PS)” reads 18%; that for “CTCTATAGTGTTCCAG (sugars kkdddddddddekeke, PS)”, 43%; that for GGGTGCTCTTACAGCC (sugars k3 d10 k3, PS), -2%.
For the sequence “GTTGGCTGGTCTTTGT (sugars kkdddddddddekeke, PS)”, the target mRNA inhibition came to 23%.
With “AGTGACTTGCATCCAT (sugars kkdddddddddkekek, PS)”, the target mRNA inhibition amounted to 27%.
On the same count and under the same terms, the result for TGATGGAGAAACGAGC (sugars k3 d10 k3, PS) reads -2%.
As for CACCTGATCTTGCTGC (sugars k3 d10 k3, PS), the target mRNA inhibition worked out at 12%.
The same measure, in the same setting: the result for “GACAGTGACTTGCATC (sugars kkddddddddddkeke, PS)” reads 25%; that for GGCCTGAAGCTTAGTT (sugars k3 d10 k3, PS), -5% and 6%.
Same read-out and setting: the result for AAATAAGATCCCACGA (sugars k3 d10 k3, PS) reads -7%; that for “CTATAGTGTTCCAGGA (sugars kkddddddddddkeke, PS)”, 36%; that for GGAGATACTTGTACTG (sugars k3 d10 k3, PS), 55%.
Same read-out and setting: the result for “CTGCTTGAGGTTTTCC (sugars kkkdddddddddkeke, PS)” reads 50%.
On to TCCAACCTTTATGATT (sugars k3 d10 k3, PS), for which the target mRNA inhibition is -3%.
Regarding “TAGTATGAGAAACGGC (sugars kkddddddddddkeke, PS)”, the target mRNA inhibition was found to be 46%.
Same read-out and setting: with “GCACATCAATGTTTTA (sugars kdddddddddkekeke, PS)” the figure was 17% and 15%; with CCAGAACTAATGTCCC (sugars k3 d10 k3, PS), 6%.
Same read-out and setting: with “AGCTTGATAAAGGCTG (sugars kkdddddddddkekek, PS)” the figure was 16%; with “TTATGTTAGCCAATTC (sugars kkdddddddddkekek, PS)”, 11% and 19%.
Same read-out and setting: with “AAGCAGTGATGTCAGG (sugars kkdddddddddkdkdk, PS)” the figure was 60% and 61%.

The series is the same for the next values; noted with them: ASO, MM.1R, 2 µM.
As for GGAGATACTTGTACTG (sugars k3 d10 k3, PS), the target mRNA inhibition is 77%.

The series is the same for the next values; noted with them: ASO, MM.1R, 4 µM.
Take GCAATCTTAACCTGGA (sugars k3 d10 k3, PS): the target mRNA inhibition is 70% and 71%.
On the same count and under the same terms, with GGAGATACTTGTACTG (sugars k3 d10 k3, PS) the figure was 87%.

The same series, now with this note: ASO, SK-MEL-28, 4 µM.
For GCCATGGCTGATCGCT (sugars k3 d10 k3, PS), the target mRNA inhibition came out at 30%.
Same read-out and setting: with GACACATTTTCTGGGT (sugars k3 d10 k3, PS) the figure was 53% and 64%.
The same measure, in the same setting: with ATGCATAACACGGTGT (sugars k3 d10 k3, PS) the figure was 45%; with AAGTGGACCCCATTGC (sugars k3 d10 k3, PS), 31%; with GTGCAAAACCAGTACA (sugars k3 d10 k3, PS), 33%.
Still for that read-out and setting: with GAAAGAATGGCGCATA (sugars k3 d10 k3, PS) the figure was 49%; with AACAAATTAAAGAGCG (sugars k3 d10 k3, PS), 23%; with GCAGAAACAGCCCACT (sugars k3 d10 k3, PS), 41%.
As to TTAAAGGAGTGCAGGA (sugars k3 d10 k3, PS), the target mRNA inhibition was 16%.
For ATGATAAGGCACTACT (sugars k3 d10 k3, PS), the target mRNA inhibition is 13%.
Same read-out and setting: the result for CGTAAACTGAAAGACC (sugars k3 d10 k3, PS) reads 48%; that for CTGCATGAGGGTGACA (sugars k3 d10 k3, PS), 19%.
Still for that read-out and setting: with CCCAATACATATCCAT (sugars k3 d10 k3, PS) the figure was 74%; with CGACAGCATAGCATTA (sugars k3 d10 k3, PS), 75%; with TCTATAAGATGTATAC (sugars k3 d10 k3, PS), 26%.
As for CAGTGCTCTTTAACAA (sugars k3 d10 k3, PS), the target mRNA inhibition was determined as 37%.
Same read-out and setting: with TTAATCTGTCTAAACC (sugars k3 d10 k3, PS) the figure was 16%; with GCTCATGCCGAACTCT (sugars k4 d8 k4, PS), 30%.
As to GGCATACAGTGTGATT (sugars k3 d10 k3, PS), the target mRNA inhibition is 25%.
On the same count and under the same terms, with CTTAATTCTGGGTTAA (sugars k3 d10 k3, PS) the figure was 53%; with CCTACAAGCAGTCATC (sugars k3 d10 k3, PS), 54%; with TGCCCAATACATATCC (sugars k3 d10 k3, PS), 59%.
Same read-out and setting: with ATTAAAGGGTAAGCAC (sugars k3 d10 k3, PS) the figure was 32%; with CGCTGGACAGCCAAAC (sugars k3 d10 k3, PS), 41%.
Same read-out and setting: with TCTGATCCGGACTCTC (sugars k3 d10 k3, PS) the figure was 41%; with AAACACCCCTTCTTGT (sugars k3 d10 k3, PS), -13%; with AGTCATCACTCTAGTC (sugars k3 d10 k3, PS), 53%.
With CATCAGAAATCACGAG (sugars k3 d10 k3, PS), the target mRNA inhibition turned out to be 55%.
In the case of GCAAAGCAAGTGTCTA (sugars k3 d10 k3, PS), the target mRNA inhibition was 43%.
On the same count and under the same terms, with AGCCCCTCAGGAAATG (sugars k3 d10 k3, PS) the figure was 24%; with TTTATATATGACGACT (sugars k3 d10 k3, PS), 39%.
Still for that read-out and setting: the result for GGAGATACTTGTACTG (sugars k3 d10 k3, PS) reads 66%; that for AGCCAGTGGCTGAAAC (sugars k3 d10 k3, PS), 21%.
The same measure, in the same setting: the result for GTATACATCACTGCAG (sugars k3 d10 k3, PS) reads 44%; that for TAAGAGGCGACTGCTG (sugars k3 d10 k3, PS), -45%.
On to TGGCCACAGAGGACTT (sugars k3 d10 k3, PS), for which the target mRNA inhibition worked out at 33%.
The same measure, in the same setting: with CAATTGAAATGGAGCA (sugars k3 d10 k3, PS) the figure was 26%; with ATCTAATCCACAATCA (sugars k3 d10 k3, PS), 30%.
Same read-out and setting: with GGTCTGGAAACTCCTC (sugars k4 d8 k4, PS) the figure was 31%.
Turning to GAGGGAGCTCATTTTG (sugars k3 d10 k3, PS), the target mRNA inhibition is 24%.
